Reference: patent US12599585B2, “Use of [(1R)-1-(2-chlorophenyl)-2-(tetrazol-2-yl)ethyl] carbamate in combination therapy” (priority 2018, dated 2026)

Key:
[1] = open-label multiple dose PK drug-interaction studies of cenobamate co-administered with AEDs; type: in vivo, human
Experimental: This study was carried out to assess the effect of cenobamate on the disposition of four AEDs (divalproex sodium, phenobarbital, phenytoin and carbamazepine) and the effect of four AEDs on the disposition of cenobamate. The details are described below.
Five open-label, multiple dose, multiple period, 1 sequence, PK drug-interaction studies were conducted examining co-administration of cenobamate and each of the above-mentioned AEDs. Specifically, five studies were conducted, as follows:
This is an open-label, multiple-dose, 1 sequence, 3 period pharmacokinetic drug interaction study between cenobamate and divalproex in normal volunteer subjects. Sixteen subjects were enrolled. All subjects were scheduled to undergo 3 treatment periods as a 1 sequence design: • Period 1 (Days 1 to 5): Single oral daily administration of 1000 mg divalproex (Treatment A). • Period 2 (Days 6 to 19): Co-administration of single oral daily administration of 1000 mg divalproex and 150 mg cenobamate (Treatments A and B). • Period 3 (Days 20 to 25): Single oral daily administration of 150 mg cenobamate (Treatment B). (Number of Subjects Planned: 16 Enrolled: 16 Analyzed: 16) Study 2—Phenobarbital
This is an open-label, 1-arm, 2-treatment study. Sixteen (16) healthy, adult, non-tobacco using, male and female subjects were enrolled. Screening of subjects occurred within 28 days prior to the first dose. A total of 16 subjects were enrolled in the study, and 14 subjects completed the study. The PK dataset therefore included 16 subjects for phenobarbital alone and 14 subjects for the combination treatment. There were 16 subjects included in the safety analyses.
Treatment A subjects received 30 mg phenobarbital TID on Days 1 to 7, followed by 90 mg phenobarbital QD in the morning on Days 8 to 21. All study drugs were administered orally with approximately 240 mL of water.
Treatment B subjects received 90 mg phenobarbital QD in the morning from Days 22 to 56 co-administered with 50 mg cenobamate QD on Days 22 to 28, 100 mg cenobamate QD on Days 29 to 35, 150 mg cenobamate QD on Days 36 to 42, and 200 mg cenobamate QD on Days 43 to 56. All study drugs were administered orally with approximately 240 mL of water. The study duration was approximately 13 weeks from screening to end-of-study procedures. There was approximately 17 weeks from screening to attempted follow-up phone call. There was no washout. […]
Blood samples were obtained prior to and following dosing at selected times through 24 hours postdose on selected days (Days 14, 28, and 70). Plasma samples were analyzed for phenytoin and cenobamate concentrations using validated analytical methods. Appropriate PK parameters were calculated for each treatment using non-compartmental methods. […]

[2] = population pharmacokinetic (PopPK) modeling and simulation of the cenobamate effect on concomitant AED concentrations in subjects with partial onset seizures; type: in vivo, human; conditions: cenobamate dose 100-400 mg/day
Experimental: This study was carried out to make an assessment of the extent to which the adjunctive treatment with cenobamate may affect the recommended dosing of other AEDs. Population pharmacokinetics (PopPK) models describing how cenobamate exposure affects that of other commonly used AEDs (i.e., carbamazepine, lamotrigine, levetiracetam, oxcarbazepine, phenytoin and valproic acid) when given as adjunct therapy.
Therapeutically effective amount for AEDs are different depending on the condition of subjects participated in the study. For carbamazepine, therapeutically effective amount was about 800 mg/day to about 1,200 mg/day for adults and children over 12 years of age. For lamotrigine, therapeutically effective amount was about 100 mg/day to about 500 mg/day, preferably about 100 mg/day to 200 mg/day, for adults and children over 12 years of age. For levetiracetam, therapeutically effective amount was about 3,000 mg/day for adults and children over 12 years of age. For phenytoin, therapeutically effective amount was about 300 mg/day to about 600 mg/day for adults. For valproic acid, therapeutically effective amount was about 60 mg/kg/day for adults.
PopPk datasets were constructed from clinical databases for Cenobamate Study 1, Cenobamate Study 2 and Cenobamate Study 3. The dosing, exposure, covariate and AED concentration data were merged by subject, date, and time; formatted for PopPK analysis and saved in ASCII format using R software (Version 3.2.2, Comprehensive R Network, cran.r-project.org). All data programs were documented and archived in a locked on-line repository in order to maintain an audit trail. A quality control (QC) check of the data management procedure was conducted according to qPharmetra standard operating procedures (SOPs).
Results from Cenobamate Study 1, Cenobamate Study 2 and Cenobamate Study 3 were included in the analyses. Each study is described in more detail in the subsequent sections.
This is a multicenter, double-blind, randomized, adjunctive placebo-controlled trial with an open-label extension phase to evaluate the efficacy and safety of cenobamate in subjects with treatment resistant partial onset seizures. Subjects with partial onset seizures not fully controlled despite their treatment with 1 to 3 concomitant AEDs were included in this study. The study included an 8 week baseline period to assess seizure frequency. Only subjects who experienced at least 3 seizures/month during the baseline period with no 21-day seizure-free period were randomized in a 1:1 ratio to add-on placebo or cenobamate administered in an oral formulation once daily in the morning. Subjects then entered a 12-week double-blind treatment period, consisting of a 6-week titration phase followed by a 6-week maintenance phase. In maintenance phase, the dose was 200 mg/day. Blood samples were drawn at the baseline, predose at the start of the titration phase, and on days 15, 29, 43, 57 and 85 after the first dose during the double-blinded treatment period. These samples were analyzed for lamotrigine, levetiracetam, oxcarbazepine, carbamazepine, and valproic acid.
This is a multicenter, double-blind, randomized, placebo-controlled dose-response study, with an 8-week prospective baseline and an 18-week double-blind treatment period. Subjects must have had least 8 partial seizures including only simple partial seizures with motor component, complex partial seizures, or secondarily generalized seizures without a seizure-free interval of greater than 25 days any time during the 8-week baseline despite their treatment with 1 to 3 AEDs. Subjects must have had at least 3 of these partial seizures during each of the two consecutive 4-week periods in the baseline period to be randomized to 100, 200 or 400 mg/day cenobamate or placebo (1:1:1:1 ratio) administered as a tablet formulation once daily in the morning. Subjects first entered a 6-week titration followed by a 12-week maintenance phase. […]

[3] = combination therapy with phenytoin vs cenobamate alone (FIG. 3)
[4] = combination therapy with cenobamate vs AED alone (FIG. 2)

Question: What does the source list for `NC(=O)O[C@@H](Cn1ncnn1)c1ccccc1Cl` [cenobamate, [(1R)-1-(2-chlorophenyl)-2-(tetrazol-2-yl)ethyl] carbamate]?
Answer: plasma AUC for cenobamate [1, 3]: decreased; plasma Cmax for cenobamate [1, 3]: decreased

Question: For `Nc1nnc(-c2cccc(Cl)c2Cl)c(N)n1` [Lamotrigine, lamotrigine], which “Effect on AED Concentration (AUC): Reduction by” value (shortened to “Effect … Reduction by”) [2] is on record?
Answer: Reduction by 21-52%

Question: With `CC[C@@H](C(N)=O)N1CCCC1=O` [Levetiracetam, levetiracetam] as the molecule, how does the “Effect … Reduction by” value [2] read?
Answer: Reduction by 4-13%

Question: For `NC(=O)N1c2ccccc2C=Cc2ccccc21` [Carbamazepine, carbamazepine], which “Effect … Reduction by” value [2] is on record?
Answer: Reduction by 11-34%

Question: With `O=C1NC(=O)C(c2ccccc2)(c2ccccc2)N1` [Phenytoin, phenytoin] as the molecule, how does the “Effect on AED Concentration (AUC): Increase by” value [2] read?
Answer: Increase by 10-60%

Question: With `CCC1(c2ccccc2)C(=O)NC(=O)NC1=O` [phenobarbital] as the molecule, how does the “plasma AUC of the AED” value [1, 4] read?
Answer: increased

Question: What about the “plasma Cmax of the AED” value [1, 4] of the same molecule?
Answer: increased

Question: Which “Effect … Reduction by” value [2] does the source give for `CCCC(CCC)C(=O)O` [Valproic acid, valproic acid] here?
Answer: Reduction by 5-19%

Question: For `NC(=O)N1c2ccccc2CC(=O)c2ccccc21` [Oxcarbazepine, oxcarbazepine], which “Effect on AED Concentration (AUC): Increase by” value [2] is on record?
Answer: Increased by 10%
